Assay results as given in patent publication US8865894B2, “Oxazolidin-2-one compounds and uses thereof” (Novartis AG, priority 2012, dated 2014).

target: T1, human PI3Kδ (Homo sapiens, UniProt O00329); experiment: Biochemical PI3Kdelta (TR-FRET Adapta Universal Kinase Assay); details: mean of n measurements, read-out: PIK3d/ IC50
T1 construct: made in house
T1 sequence (O00329 2-1044 limits assumed): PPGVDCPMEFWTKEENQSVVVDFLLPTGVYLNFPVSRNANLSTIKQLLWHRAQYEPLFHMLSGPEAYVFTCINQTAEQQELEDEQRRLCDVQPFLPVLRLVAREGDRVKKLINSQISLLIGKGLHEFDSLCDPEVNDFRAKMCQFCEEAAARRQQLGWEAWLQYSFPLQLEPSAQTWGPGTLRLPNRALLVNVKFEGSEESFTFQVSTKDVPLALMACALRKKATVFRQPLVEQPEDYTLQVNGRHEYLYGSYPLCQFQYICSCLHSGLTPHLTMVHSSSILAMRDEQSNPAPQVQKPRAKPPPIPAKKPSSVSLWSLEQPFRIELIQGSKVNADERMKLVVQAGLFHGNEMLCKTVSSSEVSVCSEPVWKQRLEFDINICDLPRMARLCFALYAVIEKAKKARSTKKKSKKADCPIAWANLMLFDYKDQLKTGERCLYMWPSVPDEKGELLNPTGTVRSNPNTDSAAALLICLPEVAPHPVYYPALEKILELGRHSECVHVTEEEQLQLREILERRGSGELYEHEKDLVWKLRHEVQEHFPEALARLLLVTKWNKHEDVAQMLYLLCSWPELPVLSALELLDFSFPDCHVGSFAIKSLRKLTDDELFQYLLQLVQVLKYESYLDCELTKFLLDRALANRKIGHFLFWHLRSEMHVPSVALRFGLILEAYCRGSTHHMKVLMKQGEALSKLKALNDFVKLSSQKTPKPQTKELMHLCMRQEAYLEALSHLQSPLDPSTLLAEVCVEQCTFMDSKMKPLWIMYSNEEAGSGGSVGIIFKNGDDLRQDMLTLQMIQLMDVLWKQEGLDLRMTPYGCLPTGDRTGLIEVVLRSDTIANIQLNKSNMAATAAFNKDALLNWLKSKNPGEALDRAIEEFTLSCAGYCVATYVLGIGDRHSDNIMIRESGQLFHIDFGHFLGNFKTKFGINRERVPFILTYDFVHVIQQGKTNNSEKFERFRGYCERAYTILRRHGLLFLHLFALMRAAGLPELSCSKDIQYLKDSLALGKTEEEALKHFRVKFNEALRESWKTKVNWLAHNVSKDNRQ
Procedure: Test compounds were dissolved in DMSO (10 mM) and transferred into 1.4 mL flat bottom or V-shaped Matrix tubes carrying a unique 2D matrix chip by individual Novartis compound hubs. The numbers of these chips were distinctively linked to Novartis Pharma Numbers. The stock solutions were stored at −20° C. if not used immediately. For the test procedure the vials were defrosted and identified by a scanner whereby a working sheet was generated that guided the subsequent working steps.
Compounds were either manually diluted in DMSO for individual experiments (96 wells enabling 10 cpds at 8 (single points) concentrations) as described in or prepared as described below if tested for profiling in 384-wells. This format enabled the assay of maximally 40 individual test compounds at 8 concentrations (single points) including 4 reference compounds. The dilution protocol included the production of “pre-dilution plates”, “master plates” and “assay plates”.
96 polypropylene well plates were used as pre-dilution plates. A total of 4 pre-dilution plates were prepared including 10 test compounds each on the plate positions A1-A10, one standard compound at A11 and one DMSO control at A12. Programs have been written to run these pipetting steps on the HamiltonSTAR robots.
Identical “assay plates” were then prepared by pipetting 50 nL each of compound dilutions of the “master plates” into 384-well “assay plates”. The compounds were mixed with 4.5 μL of assays components plus 4.5 μL enzyme corresponding to a 1:181 dilution enabling the final concentration of 10, 3.0, 1.0, 0.3, 0.1, 0.03, 0.01 and 0.003 μM, respectively. The preparation of the “master plates” was handled by the Matrix PlateMate Plus robot and replication of “assay plates” by the HummingBird robot.
Catalytically active human PI3Kα, PI3Kβ, PI3Kδ, and mTOR were cloned, expressed and purified as described (Maira S M, Stauffer F, Brueggen J, Furet P, Schnell C, Fritsch C, Brachmann S, Chène P, de Pover A, Schoemaker K, Fabbro D, Gabriel D, Simonen M, Murphy L, Finan P, Sellers W, García-Echeverría C (2008), Mol Cancer Ther. 7:1851-63 and Maira S M, Pecchi S, Brueggen J, Huh K, Schnell C, Fritsch C, Nagel T, Wiesmann M, Brachmann S, Dorsch M, Chène P, Schoemaker K, De Pover A, Menezes D, Fabbro D, Sellers W, García-Echeverría C, Voliva C F (2011), Mol. Cancer Ther. accepted).
The TR-FRET Adapta™ Universal Kinase Assay Kit was purchased from Invitrogen Corporation (Carlsbad/CA, USA) (Cat. No. PV5099). The kit contains the following reagents: Adapta Eu-anti-ADP Antibody (Europium labeled anti-ADP antibody in HEPES buffered saline, Cat. No. PV5097), Alexa Fluor® 647-labeled ADP tracer (Alexa Fluor® 647-labeled ADP tracer in HEPES buffered saline, Cat. No. PV5098), proprietary TR-FRET dilution buffer pH 7.5 (Cat. No. PV3574).
PIK3CD substrate Phosphatidylinositol was obtained from Invitrogen (vesicules consisting of 2 mM PI in 50 mM HEPES pH7.5; Cat. No. PV5371). PIK3CG substrate Phosphatidylinositol-4,5-bisphosphate (PIP(4,5)2 was obtained from Invitrogen (PIP2:PS large unilamellar vesicules consisting of 1 mM PIP2: 19 mM PS in 50 mM HEPES pH7.5, 3 mM MgCl2, 1 mM EGTA; Cat. No. PV5100).
Time-Resolved Fluorescence Resonance Energy Transfer (TR-FRET) is a technology based on energy transfer between two adjacent dyes, from an excited electron in one dye (the donor) to an electron of an adjacent dye (the acceptor) through resonance, then released as a photon. This energy transfer is detected by an increase in the fluorescence emission of the acceptor, and a decrease in the fluorescence emission of the donor. TR-FRET assays for protein kinases use a long-lifetime lanthanide Terbium or Europium chelates as the donor species which overcome interference from compound autofluorescence or light scatter from precipitated compounds, by introducing a delay after excitation by a flashlamp excitation source. Results are often expressed as a ratio of the intensities of the acceptor and donor fluorophores.

SMILES	IC50 [nM]
C[C@H]1C(CC(C)(C)O)OC(=O)N1c1cc(-c2cnc(N)nc2C(F)(F)F)nc(N2CCOCC2)n1 (mixture of isomers) [Example 26, (4S,5R)- and (4S,5S)-3-(2′-amino-2-morpholino-4′-(trifluoromethyl)-[4,5′-bipyrimidin]-6-yl)-5-(2-hydroxy-2-methylpropyl)-4-methyloxazolidin-2-one]	12
Nc1ncc(-c2cc(N3C(=O)O[C@@H]4[C@@H](O)CC[C@@H]43)nc(N3CCOCC3)n2)c(C(F)(F)F)n1 (racemic) [Example 22, (3aR*,6R*,6aR*)-3-(2′-Amino-2-morpholino-4′-(trifluoromethyl)-[4,5′-bipyrimidin]-6-yl)-6-hydroxyhexahydro-2H-cyclopenta[d]oxazol-2-one]	6
Nc1ncc(-c2cc(N3C(=O)OC4C(O)CCC43)nc(N3CCOCC3)n2)c(C(F)(F)F)n1 (single isomer, unassigned) [Example 22A]	4
Nc1ncc(-c2cc(N3C(=O)OC4C(O)CCC43)nc(N3CCOCC3)n2)c(C(F)(F)F)n1 (single isomer, unassigned) [Example 22B]	5
C[C@@H](O)C[C@H]1OC(=O)N(c2cc(-c3cnc(N)nc3C(F)(F)F)nc(N3CCOCC3)n2)[C@H]1C (single isomer, unassigned) [Example 24]	9
C[C@H](O)CC1OC(=O)N(c2cc(-c3cnc(N)nc3C(F)(F)F)nc(N3CCOCC3)n2)[C@H]1C (single isomer, unassigned) [Example 25]	7
COC[C@H]1COC(=O)N1c1cc(-c2cnc(N)nc2C(F)(F)F)nc(N2CCOCC2)n1 [Example 5, (S)-3-(2′-Amino-2-morpholin-4-yl-4′-trifluoromethyl-[4,5′]bipyrimidinyl-6-yl)-4-methoxymethyl-oxazolidin-2-one]	4
C[C@@H]1OC(=O)N(c2cc(-c3cnc(N)nc3C(F)(F)F)nc(N3CCOCC3)n2)[C@H]1CO [Example 6]	11
[2H]C1([2H])OC([2H])([2H])C([2H])([2H])N(c2nc(-c3cnc(N)nc3C(F)(F)F)cc(N3C(=O)O[C@H](C)[C@@H]3CO)n2)C1([2H])[2H] [Example 8]	21
Nc1ncc(-c2cc(N3C(=O)OC[C@@H]3CCO)nc(N3CCOCC3)n2)c(C(F)(F)F)n1 [Example 9, (S)-3-(2′-Amino-2-morpholin-4-yl-4′-trifluoromethyl-[4,5′]bipyrimidinyl-6-yl)-4-(2-hydroxy-ethyl)-oxazolidin-2-one]	32
C[C@H]1OC(=O)N(c2cc(-c3cnc(N)nc3C(F)(F)F)nc(N3CCOC[C@@H]3C)n2)[C@H]1CO [Example 10, (4S,5R)-3-[2′-Amino-2-((S)-3-methyl-morpholin-4-yl)-4′-trifluoromethyl-[4,5′]bipyrimidinyl-6-yl]-4-hydroxymethyl-5-methyl-oxazolidin-2-one]	12
C[C@H]1OC(=O)N(c2cc(-c3cnc(N)nc3C(F)(F)F)nc(N3CCOCC3)n2)[C@H]1COC=O [Example 12, Formic acid (4S,5R)-3-(2′-amino-2-morpholin-4-yl-4′-trifluoromethyl-[4,5′]bipyrimidinyl-6-yl)-5-methyl-2-oxo-oxazolidin-4-ylmethyl ester]	59
C[C@H]1[C@H](CO)OC(=O)N1c1cc(-c2cnc(N)nc2C(F)(F)F)nc(N2CCOCC2)n1 [Example 15, (4S,5R)-3-(2′-Amino-2-morpholin-4-yl-4′-trifluoromethyl-[4,5′]bipyrimidinyl-6-yl)-5-hydroxymethyl-4-methyl-oxazolidin-2-one]	15
C[C@H]1CN(c2cc(-c3cnc(N)nc3C(F)(F)F)nc(N3CCOCC3)n2)C(=O)O1 [Example 16, (S)-3-(2′-Amino-2-morpholin-4-yl-4′-trifluoromethyl-[4,5′]bipyrimidinyl-6-yl)-5-methyl-oxazolidin-2-one]	21

Continued by falling IC50, values first:

IC50 [nM]	SMILES
75	CC1(C)OC(=O)N(c2cc(-c3cnc(N)nc3C(F)(F)F)nc(N3CCOCC3)n2)[C@H]1CO [Example 2, (S)-3-(2′-Amino-2-morpholin-4-yl-4′-trifluoromethyl-[4,5′]bipyrimidinyl-6-yl)-4-hydroxymethyl-5,5-dimethyl-oxazolidin-2-one]
29	Nc1ncc(-c2cc(N3CCOC3=O)nc(N3CCOCC3)n2)c(C(F)(F)F)n1 [Example 11, 3-(2′-Amino-2-morpholin-4-yl-4′-trifluoromethyl-[4,5′]bipyrimidinyl-6-yl)-oxazolidin-2-one, reference compound]
21	C[C@H]1COCCN1c1nc(-c2cnc(N)nc2C(F)(F)F)cc(N2C(=O)OC[C@@H]2C)n1 [Example 13, (S)-3-[2′-Amino-2-((S)-3-methyl-morpholin-4-yl)-4′-trifluoromethyl-[4,5′]bipyrimidinyl-6-yl]-4-methyl-oxazolidin-2-one]
17	Nc1ncc(-c2cc(N3C[C@@H](CO)OC3=O)nc(N3CCOCC3)n2)c(C(F)(F)F)n1 [Example 14, (S)-3-(2′-Amino-2-morpholin-4-yl-4′-trifluoromethyl-[4,5′]bipyrimidinyl-6-yl)-5-hydroxymethyl-oxazolidin-2-one]
12	CC1(CO)COC(=O)N1c1cc(-c2cnc(N)nc2C(F)(F)F)nc(N2CCOCC2)n1 (racemic) [Example 3, 3-(2′-amino-2-morpholino-4′-(trifluoromethyl)-4,5′-bipyrimidin-6-yl)-4-(hydroxymethyl)-4-methyloxazolidin-2-one]
7	C[C@H]1COC(=O)N1c1cc(-c2cnc(N)nc2C(F)(F)F)nc(N2CCOCC2)n1 [Example 1, (S)-3-(2′-Amino-2-morpholin-4-yl-4′-trifluoromethyl-[4,5′]bipyrimidinyl-6-yl)-4-methyl-oxazolidin-2-one]
4	Nc1ncc(-c2cc(N3C(=O)O[C@H]4CCCC[C@@H]43)nc(N3CCOCC3)n2)c(C(F)(F)F)n1 [Example 4, (3aS,7aS)-3-(2′-Amino-2-morpholin-4-yl-4′-trifluoromethyl-[4,5′]bipyrimidinyl-6-yl)-hexahydro-benzooxazol-2-one]
